Experimental data reported in patent US20140371305A1, “Mupirocin Antibiotic Composition” (PROFESSIONAL COMPOUNDING CENTERS OF AMERICA, priority 2013, published 2014).

Experiments:
[1] = system: Pseudomonas aeruginosa; assay: Minimum inhibitory concentration (MIC) test; format: cell-based; settings: mupirocin combined with micronized poloxamer composition 202 (poloxamer 188 and poloxamer 407)
Procedure: (§1) “Minimum Inhibitory Concentration (MIC)” may refer to the lowest concentration of an antimicrobial that may inhibit the visible growth of a microorganism after overnight incubation.
(§2) Moreover, micronized poloxamer composition 202 may enhance mupirocin's properties by lowering the minimum inhibitory concentration (MIC) to about […]. The MIC was tested against microorganisms such as Pseudomonas aeruginosa, and Methicillin Resistant Staphylococcus aureus, among others.

[2] = system: Methicillin Resistant Staphylococcus aureus; assay: Minimum inhibitory concentration (MIC) test; format: cell-based; settings: mupirocin combined with micronized poloxamer composition 202 (poloxamer 188 and poloxamer 407)
Procedure: as §1, §2

minimum inhibitory concentration (MIC) [1]: about 1.7 g
minimum inhibitory concentration (MIC) [2]: about 1.7 g
SMILES: C/C(=C\C(=O)OCCCCCCCCC(=O)O)C[C@@H]1OC[C@H](C[C@@H]2O[C@H]2[C@@H](C)[C@H](C)O)[C@@H](O)[C@H]1O [mupirocin]
